One experiment deals with T1, KRAS G12C 1-169, his-tagged protein, GDP-loaded (Homo sapiens, UniProt P01116, G12C).
T1 construct: KRAS G12C 1-169, his-tagged protein, GDP-loaded
T1 sequence (P01116 1-169 isoform P01116-2 G12C): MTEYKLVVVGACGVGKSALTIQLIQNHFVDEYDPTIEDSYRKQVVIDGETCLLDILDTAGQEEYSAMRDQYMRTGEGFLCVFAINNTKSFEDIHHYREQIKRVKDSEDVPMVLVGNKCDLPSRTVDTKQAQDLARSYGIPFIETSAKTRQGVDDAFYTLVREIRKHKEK
The experiment is described as follows: Biochemical assay: covalent binding to KRAS G12C, measured by mass spectrometry. Particulars: Binding activity determined at 2 hrs; Table 7b. How it is done: Test compounds were prepared as 10 mM stock solutions in DMSO (Fisher cat#BP-231-100). KRAS G12C 1-169, his-tagged protein, GDP-loaded was diluted to 2 μm in buffer (20 mM Hepes, 150 mM NaCl, 1 mM MgCl2). Compounds were tested for activity as follows:
Compounds were diluted to 50× final test concentration in DMSO in 96-well storage plates. Compound stock solutions were vortexed before use and observed carefully for any sign of precipitation. Dilutions were as follow: • For 100 μM final compound concentration, compounds were diluted to 5000 μM (5 μl 10 mM compound stock+5 μl DMSO and mixed well by pipetting. • For 30 μM final compound concentration, compounds were diluted to 1500 μM (3 μl 10 mM compound stock+17 μl DMSO) and mixed well by pipetting. • For […] final compound concentration, compounds were diluted to 500 μM (2 μl 10 mM compound stock+38 μl DMSO) and mixed well by pipetting. 49 μl of the stock protein solution was added to each well of a 96-well PCR plate (Fisher cat#1423027). 1 μl of the diluted 50× compounds were added to appropriate wells in the PCR plate using 12-channel pipettor. Reactions were mixed carefully and thoroughly by pipetting up/down with a 200 μl multi-channel pipettor. The plate was sealed well with aluminum plate seal, and stored in a drawer at room temperature for 2 hrs or 24 hrs. 5 μl of 2% formic acid (Fisher cat#A117) in DI H2O was then added to each well followed by mixing with a pipette. The plate was then resealed with aluminum seal and stored on dry ice until analyzed as described below.
The above described assays were analyzed by mass spectrometry according to the following procedure:
The MS instrument is set to positive polarity, 2 GHz resolution, and low mass (1700) mode and allowed to equilibrate for 30 minutes. The instrument is then calibrated, switched to acquisition mode and the appropriate method loaded.
After another 30 minute equilibration time, a blank batch (i.e., buffer) is run to ensure equipment is operating properly. The samples are thawed at 37° C. for 10 minutes, briefly centrifuged, and transfer to the bench top. Wells A1 and H12 are spiked with 1 uL 500 uM internal standard peptide, and the plates centrifuged at 2000×g for 5 minutes. The method is then run and masses of each individual well recorded.
The masses (for which integration data is desired) for each well are pasted into the platemap and exported from the analysis. Masses for the internal standards are exported as well. The data at 50 ppm is extracted for the +19 charge state, and identity of well A1 is assigned using the internal standard spike and integrated. Peak data is exported as a TOF list and the above steps are repeated individually, for the +20, 21, 22, 23, 24, and charge states.
Take `C=CC(=O)N1CC(N2CCN(C(=O)NCc3cc(Br)c(Cl)cc3O)CC2)C1` [Compound V-66, 4-(1-acryloylazetidin-3-yl)-N-(5-bromo-4-chloro-2-hydroxybenzyl) piperazine-1-carboxamide]: the Binding % entry was “+ (+ indicates binding activity from 5% to 20%)”.

The same experiment, now with this note: Binding activity determined at 2 hrs; Table 8b.
Consider `C=CC(=O)N1CCN(C(=O)c2cc(Cl)c(-c3ccccc3Cl)cc2O)CC1` [VI-41, 1-(4-(2,2′-dichloro-5-hydroxybiphenyl-carbonyl)piperazin-1-yl)prop-2-en-1-one], for which the Binding % entry is on record as “+ (+ indicates binding activity from 5% to 20%)”. Still for that read-out and setting: to `C=CC(=O)N1CCN(C(=O)c2cc(-c3ccc(Cl)cc3)c(Cl)cc2O)CC1C#N` (stereo not drawn) [VI-37, 1-Acryloyl-4-(4′,6-dichloro-4-hydroxy-[1,1′-biphenyl]-3-carbonyl)piperazine-2-carbonitrile] belongs “++ (++ indicates binding activity greater than 20%)”; to `C=CC(=O)N1CCN(C(=O)c2cc(-c3cc(Cl)ccc3Cl)c(Cl)cc2O)CC1C#N` (stereo not drawn) [VI-38, 1-acryloyl-4-(2′,5′,6-trichloro-4-hydroxybiphenyl-carbonyl)piperazine-2-carbonitrile], “++ (++ indicates binding activity greater than 20%)”. Still for that read-out and setting: the result for `C=CC(=O)N1CCN(C(=O)c2cc(Cl)c(-c3cccc(Cl)c3)cc2O)CC1` [VI-43, 1-(4-(2,3′-dichloro-5-hydroxybiphenyl-carbonyl)piperazin-1-yl)prop-2-en-1-one] reads “+ (+ indicates binding activity from 5% to 20%)”.

The experiment is the same for the next values; noted with them: Binding activity determined at 24 hrs; Table 7a.
Take `C=CC(=O)N1CCC(N2CCN(C(=O)CNc3cc(Cl)c(C)cc3O)CC2)C1` (stereo not drawn) [Compound V-8, 1-(3-(4-(2-(5-chloro-2-hydroxy-4-methylphenyl-amino)acetyl)piperazin-1-yl)pyrrolidin-1-yl)prop-2-en-1-one]: the Binding % result is “++ (++ indicates binding activity greater than 15% and up to 25%)”.

The experiment is the same for the next values; noted with them: Binding activity determined at 24 hrs; Table 8a.
As for `C=CC(=O)N1CCN(C(=O)c2nc(-c3ccccc3Cl)sc2Cl)CC1` [VI-20, 1-(4-(5-chloro-2-(2-chlorophenyl)thiazole-4-carbonyl)piperazin-1-yl)prop-2-en-1-one], the Binding % result was “+ (+ indicates binding activity from 5% to 10%)”. The same measure, in the same setting: to `C=CC(=O)N1CCN(C(=O)c2cc(-c3cc(Cl)ccc3Cl)c(Cl)cc2OC)CC1` [VI-5, 1-(4-(2′,5′,6-trichloro-4-methoxybiphenyl-carbonyl)piperazin-1-yl)prop-2-en-1-one] belongs “++++ (++++ indicates binding activity greater than 30%)”; to `C=CC(=O)N1CCN(C(=O)c2cc(-c3cccs3)[nH]n2)CC1` [VI-16, 1-(4-(5-(thiophen-2-yl)-1H-pyrazole-3-carbonyl)piperazin-1-yl)prop-2-en-1-one], “+ (+ indicates binding activity from 5% to 10%)”. Still for that read-out and setting: to `C=CC(=O)N1CCN(C(=O)c2cc(-c3ccccc3Cl)ccc2O)CC1` [VI-26, 1-(4-(2′-chloro-4-hydroxybiphenyl-carbonyl)piperazin-1-yl)prop-2-en-1-one] belongs “++ (++ indicates binding activity greater than 10% and up to 20%)”; to `C=CC(=O)N1CC(NC(=O)c2cc(-c3ccccc3Cl)[nH]n2)C1` [VI-14, N-(1-acryloylazetidin-3-yl)-3-(2-chlorophenyl)-1H-pyrazole-5-carboxamide], “+ (+ indicates binding activity from 5% to 10%)”. Same read-out and setting: the result for `C=CC(=O)N1CCN(C(=O)c2nc(-c3ccccc3Cl)c(C)s2)CC1` [VI-22, 1-(4-(4-(2-chlorophenyl)-5-methylthiazole-2-carbonyl)piperazin-1-yl)prop-2-en-1-one] reads “+ (+ indicates binding activity from 5% to 10%)”; that for `C=CC(=O)N1CCN(C(=O)c2nc(-c3ccccc3Cl)cs2)CC1` [VI-19, 1-(4-(4-(2-chlorophenyl)thiazole-2-carbonyl)piperazin-1-yl)prop-2-en-1-one], “+ (+ indicates binding activity from 5% to 10%)”; that for `C=CC(=O)N1CCN(C(=O)c2ccc(Cl)c(-c3ccccc3Cl)c2)CC1` [VI-12, 1-(4-(2′,6-dichlorobiphenyl-carbonyl)piperazin-1-yl)prop-2-en-1-one], “+++ (+++ indicates binding activity greater than 20% and up to 30%)”.

`C=CC(=O)N1CCN(C(=O)c2cc(-c3cc(Cl)ccc3Cl)c(Cl)cc2O)CC1` [VI-17, 1-(4-(2′,5′,6-trichloro-4-hydroxybiphenyl-carbonyl)piperazin-1-yl)prop-2-en-1-one]: the Binding % result is “++++ (++++ indicates binding activity greater than 30%)”. Consider `C=CC(=O)N1CCN(C(=O)c2cc(-c3ccccc3Cl)c(Cl)cc2OC)CC1` [VI-1, 1-(4-(2′,6-dichloro-4-methoxybiphenyl-carbonyl)piperazin-1-yl)prop-2-en-1-one], for which the Binding % result was “+ (+ indicates binding activity from 5% to 10%)”. As for `C=CC(=O)N1CCN(C(=O)c2cc(Cl)c(Cl)cc2O)CC1` [VI-8, 1-(4-(4,5-dichloro-2-hydroxybenzoyl)piperazin-1-yl)prop-2-en-1-one], the Binding % entry is on record as “+ (+ indicates binding activity from 5% to 10%)”. For the molecule `C=CC(=O)N1CCN(C(=O)c2cc(-c3cc(Cl)ccc3Cl)c(Cl)cc2OC)CC1CO` (stereo not drawn) [VI-6, 1-(2-(hydroxymethyl)-4-(2′,5′,6-trichloro-4-methoxybiphenyl-carbonyl)piperazin-1-yl)prop-2-en-1-one], the Binding % entry is “++ (++ indicates binding activity greater than 10% and up to 20%)”.

For the molecule `C=CC(=O)N1CCN(C(=O)c2cc(-c3cc(F)ccc3Cl)c(Cl)cc2OC)CC1` [VI-4, 1-(4-(2′,6-dichloro-5′-fluoro-4-methoxybiphenyl-carbonyl)piperazin-1-yl)prop-2-en-1-one], the Binding % result was “++ (++ indicates binding activity greater than 10% and up to 20%)”. Still for that read-out and setting: the result for `C=CC(=O)N1CCN(C(=O)c2cc(-c3ccccc3Cl)c(C)[nH]2)CC1` [VI-23, 1-(4-(4-(2-chlorophenyl)-5-methyl-1H-pyrrole-2-carbonyl)piperazin-1-yl)prop-2-en-1-one] reads “+++ (+++ indicates binding activity greater than 20% and up to 30%)”. The same measure, in the same setting: the result for `C=CC(=O)N1CCN(C(=O)c2csc(-c3ccccc3Cl)n2)CC1` [VI-18, 1-(4-(2-(2-chlorophenyl)thiazole-4-carbonyl)piperazin-1-yl)prop-2-en-1-one] reads “+ (+ indicates binding activity from 5% to 10%)”; that for `C=CC(=O)N1CCN(C(=O)c2cc(-c3ccccc3Cl)c(Cl)[nH]2)CC1` [VI-30, 1-(4-(5-chloro-4-(2-chlorophenyl)-1H-pyrrole-2-carbonyl)piperazin-1-yl)prop-2-en-1-one], “++ (++ indicates binding activity greater than 10% and up to 20%)”; that for `COc1cc(Cl)c(-c2ccccc2Cl)cc1C(=O)N1CCN(C(=O)/C=C/CN(C)C)CC1` [VI-10, (E)-1-(4-(2′,6-dichloro-4-methoxybiphenyl-carbonyl)piperazin-1-yl)-4-(dimethylamino)but-2-en-1-one], “+ (+ indicates binding activity from 5% to 10%)”. Still for that read-out and setting: the result for `C=CC(=O)NC1CN(C(=O)c2cc(-c3ccccc3Cl)[nH]n2)C1` [VI-15, N-(1-(3-(2-chlorophenyl)-1H-pyrazole-5-carbonyl)azetidin-3-yl)acrylamide] reads “+ (+ indicates binding activity from 5% to 10%)”.

For the molecule `C=CC(=O)NC1CN(C(=O)c2cc(-c3ccccc3Cl)c(Cl)cc2O)C1` [VI-13, N-(1-(2′,6-dichloro-4-hydroxybiphenyl-carbonyl)azetidin-3-yl)acrylamide], the Binding % result was “+ (+ indicates binding activity from 5% to 10%)”. `C=CC(=O)N1CCN(C(=O)c2cc(O)cc(-c3ccccc3Cl)c2)CC1` [VI-25, 1-(4-(2′-Chloro-5-hydroxy-[1,1′-biphenyl]-3-carbonyl)piperazin-1-yl)prop-2-en-1-one]: the Binding % entry is “+++ (+++ indicates binding activity greater than 20% and up to 30%)”. The same measure, in the same setting: to `CN(C)C/C=C/C(=O)N1CCN(C(=O)c2cc(-c3ccccc3Cl)c(Cl)cc2O)CC1` [VI-24, (E)-1-(4-(2′,6-dichloro-4-hydroxy-[1,1′-biphenyl]-3-carbonyl)piperazin-1-yl)-4-(dimethylamino)but-2-en-1-one] belongs “++++ (++++ indicates binding activity greater than 30%)”.
